Assays:
[1] = Intestinal calcium transport (everted gut sac method); assay type: in vivo, Sprague-Dawley rats; details: rats, ip, four consecutive doses, even very high concentrations; FIG. 5
Text: FIG. 5 is a bar graph comparing the intestinal calcium transport activity of (20R)-2 MbisP with that of 1,25(OH)2D3.
(§1) Male, weanling Sprague-Dawley rats were placed on Diet 11 (0.47% Ca) diet +AEK for one week followed by Diet 11 (0.02% Ca) +AEK for 3 weeks. The rats were then switched to a diet containing 0.47% Ca for one week followed by two weeks on a diet containing 0.02% Ca. Dose administration began during the last week on 0.02% calcium diet. Four consecutive ip doses were given approximately 24 hours apart. Twenty-four hours after the last dose, blood was collected from the severed neck and the concentration of serum calcium determined as a measure of bone calcium mobilization. The first 10 cm of the intestine was also collected for intestinal calcium transport analysis using the everted gut sac method.

[2] = tested on: parathyroid hormone (PTH); experiment: PTH suppression in adult rats; assay type: in vivo, Sprague-Dawley rats; details: ip, 7 consecutive days, FIG. 7
Description: FIG. 7 is a bar graph comparing the percent parathyroid hormone (PTH) suppression in adult rats of (20R)-2 MbisP with 1,25(OH)2D3.
(§2) Adult, female Sprague-Dawley rats were obtained from Harlan (Madison, Wis.).
(§3) Upon receipt, the animals were identified by individual tail marks. Animals were housed in suspended, stainless steel, wire-bottom cages. Each cage contained one animal. The animal rooms were maintained at a temperature of 68 to 72° F. and a relative humidity of 25 to 75%. The holding rooms were set to provide 12 hours of light per day. Water and a purified rodent diet (Suda et al., Purified Rodent Diet-Diet 11) containing […] 0.3% phosphorus and fat soluble vitamins A, D, E and K were provided ad libitum.
(§4) Animals were randomly assigned to treatment groups (5 animals/group). All doses were administered intraperitoneally in 100 microliters of propylene glycol. Four to seven consecutive doses were given approximately 24 hours apart. Dosing was initiated after the animals had been allowed to acclimate for at least one week. […]
Twenty-four hours after the final dose, blood was collected from the tail artery and the concentration of bioactive serum PTH was measured using the rat BioActive Intact PTH ELISA Kit from Immutopics, Inc. (San Clemente, Calif.).

[3] = tested on: 24-hydroxylase (24Ohase) gene promoter; experiment: In vitro transcription assay (luciferase reporter in ROS 17/2.8 cells); assay type: cell-based; details: FIG. 3
Description: FIG. 3 is a graph comparing the in vitro transcription activity of (20R)-2MbisP with that of 1,25(OH)2D3.
Transcription activity was measured in ROS 17/2.8 (bone) cells that were stably transfected with a 24-hydroxylase (24Ohase) gene promoter upstream of a luciferase reporter gene (Arbour et al., 1998). Cells were given a range of doses. Sixteen hours after dosing the cells were harvested and luciferase activities were measured using a luminometer. RLU=relative luciferase units.

[4] = tested on: Human promyelocytic leukemia (HL60) cells; experiment: HL-60 differentiation (nitro blue tetrazolium reduction); assay type: cell-based; details: HL-60 cells in culture; FIG. 2
Description: FIG. 2 is a graph comparing the percent HL-60 cell differentiation as a function of the concentration of (20R)-2 MbisP with that of 1,25(OH)2D3.
The study drugs were dissolved in ethanol and the concentrations determined using UV spectrophotometry. Serial dilutions were prepared so that a range of drug concentrations could be tested without changing the final concentration of ethanol (≦0.2%) present in the cell cultures.
Human promyelocytic leukemia (HL60) cells were grown in RPMI-1640 medium containing 10% fetal bovine serum. The cells were incubated at 37° C. in the presence of 5% CO2.
HL60 cells were plated at 1.2×10^5 cells/ml. Eighteen hours after plating, cells in duplicate were treated with drug. Four days later, the cells were harvested and a nitro blue tetrazolium reduction assay was performed (Collins et al., 1979; J. Exp. Med. 149:969-974). The percentage of differentiated cells was determined by counting a total of 200 cells and recording the number that contained intracellular black-blue formazan deposits. Verification of differentiation to monocytic cells was determined by measuring phagocytic activity (data not shown).

[5] = target: T1, full-length recombinant rat vitamin D receptor (Rattus norvegicus, UniProt P13053); experiment: Vitamin D receptor competitive binding with [3H]-1,25-(OH)2-D3; details: competition with [3H]-1,25-(OH)2-D3; FIG. 1
T1 construct: Full-length recombinant rat receptor was expressed in E. coli BL21(DE3) Codon Plus RIL cells; histidine tag (C); made in house; host or cells: E. coli BL21(DE3) Codon Plus RIL
T1 sequence (P13053 1-423): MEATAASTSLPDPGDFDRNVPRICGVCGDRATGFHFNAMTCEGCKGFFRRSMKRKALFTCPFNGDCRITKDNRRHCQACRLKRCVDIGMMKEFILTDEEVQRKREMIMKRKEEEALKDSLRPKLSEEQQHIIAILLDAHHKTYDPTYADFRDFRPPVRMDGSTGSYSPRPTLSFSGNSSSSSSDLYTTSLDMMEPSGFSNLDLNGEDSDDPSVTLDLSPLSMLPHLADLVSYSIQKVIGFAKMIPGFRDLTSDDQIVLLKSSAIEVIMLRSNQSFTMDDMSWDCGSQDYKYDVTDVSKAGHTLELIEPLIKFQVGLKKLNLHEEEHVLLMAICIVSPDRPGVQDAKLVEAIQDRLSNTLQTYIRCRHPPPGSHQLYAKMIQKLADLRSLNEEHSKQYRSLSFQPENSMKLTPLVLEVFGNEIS
Text: FIG. 1 is a graph comparing the relative activity of (20R)-2 MbisP and 1,25(OH)2D3 to compete for binding with [^3H]-1,25-(OH)2-D3 to the full-length recombinant rat vitamin D receptor.
Full-length recombinant rat receptor was expressed in E. coli BL21(DE3) Codon Plus RIL cells and purified to homogeneity using two different column chromatography systems. The first system was a nickel affinity resin that utilizes the C-terminal histidine tag on this protein. The protein that was eluted from this resin was further purified using ion exchange chromatography (S-Sepharose Fast Flow). Aliquots of the purified protein were quick frozen in liquid nitrogen and stored at −80° C. until use. For use in binding assays, the protein was diluted in TEDK50 (50 mM Tris, 1.5 mM EDTA, pH 7.4, 5 mM DTT, 150 mM KCl) with 0.1% Chaps detergent. […]
Unlabeled ligands were dissolved in ethanol and the concentrations determined using UV spectrophotometry (1,25(OH)2D3: molar extinction coefficient=18,200 and λmax=265 nm; Analogs: molar extinction coefficient=42,000 and λmax=252 nm). […]
Radiolabeled and unlabeled ligands were added to 100 mcl of the diluted protein at a final ethanol concentration of ≦10%, mixed and incubated overnight on ice to reach binding equilibrium. […] Total binding was determined from the tubes containing only radiolabeled ligand.

[6] = Bone calcium mobilization (serum calcium on low calcium diet); assay type: in vivo, Sprague-Dawley rats; details: rats, ip, four consecutive doses, even very high concentrations; FIG. 4
Text: FIG. 4 is a bar graph comparing the bone calcium mobilization activity of (20R)-2 MbisP with that of 1,25(OH)2D3.
as §1

[7] = Hypercalcemia: serum calcium in adult rats; assay type: in vivo, Sprague-Dawley rats; details: ip, doses as high as 45 nmol/day, FIG. 6
Description: FIG. 6 is a bar graph comparing the serum calcium levels in adult rats after administration of (20R)-2 MbisP and 1,25(OH)2D3.
as §2, §3, §4
Twenty-four hours after the final dose, approximately 1 ml of blood was collected from the tail artery of each experimental animal. […] The level of calcium was determined by diluting the serum into 0.1% lanthum chloride and measuring the absorbance on an atomic absorption spectrophotometer (Perkin Elmer Model 3110, Shelton, Conn.).

vitamin D receptors = target: T2, vitamin D receptors (Homo sapiens, UniProt P11473); details: as set forth in the '352, '861 and '622 patents; cited from earlier work
T2 sequence (P11473 1-427): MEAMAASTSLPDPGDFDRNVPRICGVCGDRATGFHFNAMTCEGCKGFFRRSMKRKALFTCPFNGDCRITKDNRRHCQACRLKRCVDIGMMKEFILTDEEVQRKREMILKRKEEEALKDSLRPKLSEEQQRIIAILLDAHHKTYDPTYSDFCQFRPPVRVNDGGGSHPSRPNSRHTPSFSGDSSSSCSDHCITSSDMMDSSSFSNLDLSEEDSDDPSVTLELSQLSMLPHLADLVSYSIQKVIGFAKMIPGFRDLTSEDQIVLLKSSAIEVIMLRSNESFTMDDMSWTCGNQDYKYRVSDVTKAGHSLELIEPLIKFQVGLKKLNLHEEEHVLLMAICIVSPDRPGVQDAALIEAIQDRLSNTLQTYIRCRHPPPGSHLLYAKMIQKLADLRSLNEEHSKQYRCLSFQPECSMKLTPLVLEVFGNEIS

[8] = as set forth in the '352, '861 and '622 patents; cited from earlier work
[9] = as set forth in the '352, '861 and '622 patents; cited from earlier work; remark: listed apart in the source

C=C1[C@H](O)CC(=C/C=C2\CCC[C@]3(C)C([C@H](C)CC)CC[C@@H]23)C[C@H]1O (stereo in doubt) [2-Methylene-19-nor-(20R)-1α-hydroxy-bishomopregnacalciferol]
intestinal calcium transport [1]: does not support
suppression of parathyroid hormone (PTH) in the plasma [2]: considerable activity
times less active than 1,25-(OH)2D3 in turning on transcription of a reporter gene coupled to the CYP-24 promoter [3]: about 5 times
times less active than 1,25-(OH)2D3 in causing the differentiation of HL-60 cells [4]: about 5 times
binding to the recombinant vitamin D receptor relative to 1,25-(OH)2D3 [5]: approximately equally effective as 1,25-(OH)2D3
bone calcium mobilization [6]: does not support
hypercalcemia (serum calcium) [7]: failed to cause hypercalcemia

C=C1[C@H](O)CC(=C/C=C2\CCC[C@]3(C)[C@@H](CC)CC[C@@H]23)C[C@H]1O [1α-Hydroxy-2-methylene-19-nor-pregnacalciferol]
binding activity to vitamin D receptors (vitamin D receptors): relatively high
calcemic activity as compared to 1α,25-dihydroxyvitamin D3 [8]: little if any
cell differentiation activity [9]: relatively high

1α-hydroxy-2-methylene-19-nor-bishomopregnacalciferol
binding activity to vitamin D receptors (vitamin D receptors): relatively high
calcemic activity as compared to 1α,25-dihydroxyvitamin D3 [8]: little if any
cell differentiation activity [9]: relatively high

1α-hydroxy-2-methylene-19-nor-(20S)-homopregnacalciferol
binding activity to vitamin D receptors (vitamin D receptors): relatively high
calcemic activity as compared to 1α,25-dihydroxyvitamin D3 [8]: little if any
cell differentiation activity [9]: relatively high
